# Measured values: US7402591B2, “Analgesic compositions containing buprenorphine” (Reckitt Benckiser Healthcare (UK) Limited, priority 1999, dated 2008)
# Test system: thermal nociceptive threshold (hindpaw withdrawal latency) in rats with peripheral mononeuropathy
# Assay: Hargreaves paw withdrawal (plantar) test in rats with sciatic nerve ligation neuropathy
# Assay type: in vivo, rat
# Procedure: The operator positions the I.R. Generator directly beneath the hind paw of the rat and activates both the I.R. Source and a reaction time counter. When the rat feels pain and withdraws its paw, the I.R. Generator is automatically switched off and the timer stops, determining the withdrawal latency.
# The testing was carried out on the eighth day following the operative procedure.
# In order to determine a baseline for comparison purposes, rats were subjected to the Hargreaves paw withdrawal test before the subcutaneous injection of the various drugs or drug combinations being tested. The rats were then injected subcutaneously with the particular drug or drug combination being tested and the percentage change in time for the rat to withdraw its paw from the thermal stimulation, in comparison with the baseline, was recorded as a percentage in paw withdrawal latency. […]
# After 8 days, thermal nociceptive threshold, as determined by hindpaw withdrawal latency, was measured using a plantar test (Ugo Basile, Comero, Italy). […] This initiated a timing circuit which measured the time interval between the application of the light beam and the withdrawal of the hind paw. […]
# Paw withdrawal latency was determined before injection and at different times after injection. […]
smiles,measurement,setting,value
"C=CCN1CC[C@]23c4c5ccc(O)c4O[C@H]2C(=O)CC[C@@]3(O)[C@H]1C5 [naloxone, 1-N-allyl-14-hydroxynorhydromorphinone]",potentiation of sub-clinical doses of buprenorphine,"Example 1, FIG. 1, low dose naloxone, weight ratios 20:1 and 15:1, subcutaneous, rats n=3",can be clearly seen
same,potentiation of the sub-clinical doses of buprenorphine,"Example 2, FIG. 2, buprenorphine 2.5 μg/kg co-administered subcutaneously at weight ratios 5:1 to 30:1, rats n=6",can be clearly seen
